Reference: ChEMBL document CHEMBL1201861, “Genomics of Drug Sensitity in Cancer screening data, Wellcome Trust Sanger Institute”

Columns and labels:
LN-405 = assay: cells; format: functional, cell-based; settings: Homo sapiens
Description: SANGER: Inhibition of human LN-405 cell growth in a cell viability assay.

MIA PaCa-2 = assay: cells; format: functional, cell-based; settings: Homo sapiens;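 further: growth inhibition of MIA PaCa-2 cells, read out with a cell viability assay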
Description: SANGER: Inhibition of human MIA-PaCa-2 cell growth in a cell viability assay.

NCI-H1693 = assay: cells; format: functional, cell-based; settings: Homo sapiens;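 further: growth inhibition of the human cell line, read out with a cell viability assay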
Description: SANGER: Inhibition of human NCI-H1693 cell growth in a cell viability assay.

IST-SL2 = assay: cells; format: functional, cell-based, Homo sapiens; settings: Homo sapiens, IST-SL2;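 further: growth inhibition of human IST-SL2 cells, read out by a cell viability assay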
Description: SANGER: Inhibition of human IST-SL2 cell growth in a cell viability assay.

HT1197 = assay: cells; format: functional, cell-based, HT-1197; settings: Homo sapiens
Description: SANGER: Inhibition of human HT-1197 cell growth in a cell viability assay.

M059J = assay: cells; format: functional, cell-based; settings: Homo sapiens;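 further: growth inhibition of M059J cells, read out with a cell viability assay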
Description: SANGER: Inhibition of human M059J cell growth in a cell viability assay.

LC-1F = assay: cells; format: functional, cell-based, Homo sapiens; settings: Homo sapiens, LC-1F;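 further: growth inhibition of human LC-1F cells, read out with a cell viability assay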
Description: SANGER: Inhibition of human LC-1F cell growth in a cell viability assay.

NCI-H1417 = assay: cells; format: functional, cell-based, Homo sapiens; settings: Homo sapiens, NCI-H1417;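 further: human NCI-H1417 cells, growth inhibition determined with a cell viability readout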
Description: SANGER: Inhibition of human NCI-H1417 cell growth in a cell viability assay.

A2058 = assay: cells; format: functional, cell-based; settings: Homo sapiens;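 further: reduction of A2058 cell growth, read out with a viability assay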
Description: SANGER: Inhibition of human A2058 cell growth in a cell viability assay.

EFO-21 = assay: cells; format: functional, cell-based; settings: Homo sapiens;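 further: growth inhibition of EFO-21 cells measured with a viability assay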
Description: SANGER: Inhibition of human EFO-21 cell growth in a cell viability assay.

Capan-2 = assay: cells; format: functional, cell-based; settings: Homo sapiens;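 further: Capan-2 cell growth inhibition, read out with a viability assay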
Description: SANGER: Inhibition of human Capan-2 cell growth in a cell viability assay.

SCC-3 = assay: cells; format: functional, cell-based, Homo sapiens; settings: Homo sapiens, SCC-3;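 further: cell viability assay measuring inhibition of SCC-3 cell growth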
Description: SANGER: Inhibition of human SCC-3 cell growth in a cell viability assay.

OAW-28 = assay: cells; format: functional, cell-based; settings: Homo sapiens;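 further: growth inhibition of OAW-28 cells, read out with a cell viability assay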
Description: SANGER: Inhibition of human OAW-28 cell growth in a cell viability assay.

SK-OV-3 = assay: cells; format: functional, cell-based; settings: Homo sapiens;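 further: growth inhibition of SK-OV-3 human cells, read out with a cell viability assay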
Description: SANGER: Inhibition of human SK-OV-3 cell growth in a cell viability assay.

G-401 = assay: cells; format: functional, cell-based; settings: Homo sapiens
Description: SANGER: Inhibition of human G-401 cell growth in a cell viability assay.

KYSE-410 = assay: cells; format: functional, cell-based; settings: Homo sapiens;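 further: growth inhibition of KYSE-410 cells, measured through a cell viability readout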
Description: SANGER: Inhibition of human KYSE-410 cell growth in a cell viability assay.

HEC-1 = assay: cells; format: functional, cell-based; settings: Homo sapiens;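 further: growth inhibition of the cell line, read out with a cell viability assay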
Description: SANGER: Inhibition of human HEC-1 cell growth in a cell viability assay.

P12-Ichikawa = assay: cells; format: functional, cell-based; settings: Homo sapiens
MONO-MAC-6 = assay: cells; format: functional, cell-based, Homo sapiens; settings: Homo sapiens, MONO-MAC-6;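 further: cell viability assay measuring growth inhibition of human MONO-MAC-6 cells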
Description: SANGER: Inhibition of human MONO-MAC-6 cell growth in a cell viability assay.

HSC-3 = assay: cells; format: functional, cell-based; settings: Homo sapiens
Description: SANGER: Inhibition of human HSC-3 cell growth in a cell viability assay.

MEL-HO = assay: cells; format: functional, cell-based; settings: Homo sapiens
Description: SANGER: Inhibition of human MEL-HO cell growth in a cell viability assay.

RO82-W-1 = assay: cells; format: functional, cell-based; settings: Homo sapiens;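 further: growth inhibition of human RO82-W-1 cells, measured with a cell viability assay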
Description: SANGER: Inhibition of human RO82-W-1 cell growth in a cell viability assay.

HT-3 = assay: cells; format: functional, cell-based; settings: Homo sapiens;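 further: growth inhibition measured with a cell viability readout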
Description: SANGER: Inhibition of human HT-3 cell growth in a cell viability assay.

SJRH30 = assay: cells; format: functional, cell-based; settings: Homo sapiens;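 further: growth inhibition of human SJRH30 cells, read out with a cell viability assay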
Description: SANGER: Inhibition of human SJRH30 cell growth in a cell viability assay.

T-24 = assay: cells; format: functional, cell-based; settings: Homo sapiens;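 further: growth inhibition of T-24 cells, read out with a cell viability assay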
Description: SANGER: Inhibition of human T-24 cell growth in a cell viability assay.

CAKI-1 = assay: cells; format: functional, cell-based; settings: Homo sapiens;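 further: growth inhibition of CAKI-1 cells, measured by a cell viability assay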
Description: SANGER: Inhibition of human CAKI-1 cell growth in a cell viability assay.

Calu-3 = assay: cells; format: functional, cell-based; settings: Homo sapiens;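 further: growth inhibition of human Calu-3 cells, determined with a cell viability assay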
Description: SANGER: Inhibition of human Calu-3 cell growth in a cell viability assay.

BHY = assay: cells; format: functional, cell-based; settings: Homo sapiens;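 further: cell growth inhibition read out by a viability assay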
Description: SANGER: Inhibition of human BHY cell growth in a cell viability assay.

HSC-4 = assay: cells; format: functional, cell-based; settings: Homo sapiens;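 further: growth inhibition of human HSC-4 cells, read out with a cell viability assay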
Description: SANGER: Inhibition of human HSC-4 cell growth in a cell viability assay.

WSU-NHL = assay: cells; format: functional, cell-based, Homo sapiens; settings: Homo sapiens, WSU-NHL;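 further: growth inhibition of human WSU-NHL cells, read out with a cell viability assay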
Description: SANGER: Inhibition of human WSU-NHL cell growth in a cell viability assay.

EB2 = assay: cells; format: functional, cell-based, Homo sapiens; settings: Homo sapiens, EB2;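 further: growth inhibition of EB2 cells, read out with a cell viability assay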
Description: SANGER: Inhibition of human EB2 cell growth in a cell viability assay.

TYK-nu = assay: cells; format: functional, cell-based; settings: Homo sapiens;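 further: growth inhibition of human TYK-nu cells, read out by a cell viability assay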
Description: SANGER: Inhibition of human TYK-nu cell growth in a cell viability assay.

RT-112 = assay: cells; format: functional, cell-based; settings: Homo sapiens
Description: SANGER: Inhibition of human RT-112 cell growth in a cell viability assay.

SN12C = assay: cells; format: functional, cell-based; settings: Homo sapiens;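 further: growth inhibition of human SN12C cells, measured by a cell viability assay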
Description: SANGER: Inhibition of human SN12C cell growth in a cell viability assay.

Hs-578T = assay: cells; format: functional, cell-based; settings: Homo sapiens
Description: SANGER: Inhibition of human Hs-578-T cell growth in a cell viability assay.

MDA-MB-175-VII = assay: cells; format: functional, cell-based; settings: Homo sapiens
YT = assay: cells; format: functional, cell-based, Homo sapiens; settings: Homo sapiens, YT
Description: SANGER: Inhibition of human YT cell growth in a cell viability assay.

SW780 = assay: cells; format: functional, cell-based; settings: Homo sapiens;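 further: growth inhibition of the cells, read out with a cell viability assay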
Description: SANGER: Inhibition of human SW780 cell growth in a cell viability assay.

MDA-MB-361 = assay: cells; format: functional, cell-based; settings: Homo sapiens
MFH-ino = assay: cells; format: functional, cell-based, Homo sapiens; settings: Homo sapiens, MFH-ino;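 further: growth inhibition of human MFH-ino cells, read out by a cell viability assay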
Description: SANGER: Inhibition of human MFH-ino cell growth in a cell viability assay.

NCI-H1993 = assay: cells; format: functional, cell-based; settings: Homo sapiens;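 further: growth inhibition of the cancer cell line, assessed with a cell viability assay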
Description: SANGER: Inhibition of human NCI-H1993 cell growth in a cell viability assay.

AGS = assay: cells; format: functional, cell-based; settings: Homo sapiens;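 further: growth inhibition of AGS cells, determined with a cell viability assay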
Description: SANGER: Inhibition of human AGS cell growth in a cell viability assay.

COR-L279 = assay: SANGER: Inhibition of human COR-L279 cell growth in a cell viability assay.; format: functional, cell-based; settings: Homo sapiens, COR-L279
CPC-N = assay: cells; format: functional, cell-based, Homo sapiens; settings: Homo sapiens, CPC-N;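 further: growth inhibition of CPC-N cells, with a cell viability assay as the readout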
Description: SANGER: Inhibition of human CPC-N cell growth in a cell viability assay.

MeWo = assay: cells; format: functional, cell-based; settings: Homo sapiens;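 further: growth inhibition of MeWo cells, determined by a cell viability readout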
Description: SANGER: Inhibition of human Mewo cell growth in a cell viability assay.

BT-20 = assay: cells; format: functional, cell-based; settings: Homo sapiens;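 further: cell viability assay measuring suppression of growth in human BT-20 cells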
Description: SANGER: Inhibition of human BT-20 cell growth in a cell viability assay.

UACC-62 = assay: cells; format: functional, cell-based; settings: Homo sapiens;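 further: growth inhibition of human UACC-62 cells, read out by a cell viability assay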
Description: SANGER: Inhibition of human UACC-62 cell growth in a cell viability assay.

SW1417 = assay: cells; format: functional, cell-based; settings: Homo sapiens;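 further: growth inhibition of human SW1417 cells, read out with a cell viability assay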
Description: SANGER: Inhibition of human SW1417 cell growth in a cell viability assay.

NCI-H1882 = assay: cells; format: functional, cell-based, Homo sapiens; settings: Homo sapiens, NCI-H1882;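 further: growth inhibition of the cell line, determined with a viability assay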
Description: SANGER: Inhibition of human NCI-H1882 cell growth in a cell viability assay.

SW-620 = assay: cells; format: functional, cell-based; settings: Homo sapiens;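 further: growth inhibition of human SW-620 cells, measured by a cell viability assay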
Description: SANGER: Inhibition of human SW620 cell growth in a cell viability assay.

CAL-72 = assay: cells; format: functional, cell-based; settings: Homo sapiens;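 further: cell viability assay measuring inhibition of proliferation in the CAL-72 cell line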
Description: SANGER: Inhibition of human CAL-72 cell growth in a cell viability assay.

CWR22R = assay: cells; format: functional, cell-based; settings: Homo sapiens, 22Rv1;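 further: growth inhibition of 22Rv1 cells, read out with a cell viability assay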
Description: SANGER: Inhibition of human 22RV1 cell growth in a cell viability assay.

SK-MM-2 = assay: cells; format: functional, cell-based, Homo sapiens; settings: Homo sapiens, SK-MM-2;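 further: growth inhibition of human SK-MM-2 cells, read out with a cell viability assay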
Description: SANGER: Inhibition of human SK-MM-2 cell growth in a cell viability assay.

DG-75 = assay: cells; format: functional, cell-based, Homo sapiens; settings: Homo sapiens, DG-75;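 further: growth inhibition of DG-75 cells, read out with a cell viability assay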
Description: SANGER: Inhibition of human DG-75 cell growth in a cell viability assay.

GMS-10 = assay: cells; format: functional, cell-based; settings: Homo sapiens;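 further: growth inhibition of GMS-10 cells, read out as cell viability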
Description: SANGER: Inhibition of human GMS-10 cell growth in a cell viability assay.

SNU-423 = assay: cells; format: functional, cell-based; settings: Homo sapiens
Description: SANGER: Inhibition of human SNU-423 cell growth in a cell viability assay.

A204 = assay: cells; format: functional, cell-based; settings: Homo sapiens;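 further: growth inhibition of human A204 cells, read out with a cell viability assay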
Description: SANGER: Inhibition of human A204 cell growth in a cell viability assay.

DMS-79 = assay: cells; format: functional, cell-based, Homo sapiens; settings: Homo sapiens, DMS-79
Description: SANGER: Inhibition of human DMS-79 cell growth in a cell viability assay.

NCI-H2196 = assay: cells; format: functional, cell-based, Homo sapiens; settings: Homo sapiens, NCI-H2196; read-out: IC50;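 further: cell viability assay used as the readout of growth inhibition in NCI-H2196 cells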
Description: SANGER: Inhibition of human NCI-H2196 cell growth in a cell viability assay.

Question: Which results are given for `Cc1ccc(C(=O)Nc2ccc(CN3CCN(C)CC3)c(C(F)(F)F)c2)cc1C#Cc1cnc2cccnn12` [PONATINIB]?
Answer: IC50 (LN-405): > 512 nM; IC50 (MIA PaCa-2): > 512 nM; IC50 (NCI-H1693): > 512 nM; IC50 (IST-SL2): > 512 nM; IC50 (HT1197): > 512 nM; IC50 (M059J): > 512 nM; IC50 (LC-1F): > 512 nM; IC50 (NCI-H1417): > 512 nM; IC50 (A2058): > 512 nM; IC50 (EFO-21): 304 nM; IC50 (Capan-2): > 512 nM; IC50 (SCC-3): > 512 nM; IC50 (OAW-28): > 512 nM; IC50 (SK-OV-3): > 512 nM; IC50 (G-401): > 512 nM; IC50 (KYSE-410): > 512 nM; IC50 (HEC-1): > 512 nM; IC50 (P12-Ichikawa): > 512 nM; IC50 (MONO-MAC-6): 8.37 nM; IC50 (HSC-3): > 512 nM; IC50 (MEL-HO): > 512 nM; IC50 (RO82-W-1): > 512 nM; IC50 (HT-3): > 512 nM; IC50 (SJRH30): > 512 nM; IC50 (T-24): > 512 nM; IC50 (CAKI-1): 217 nM; IC50 (Calu-3): > 512 nM; IC50 (BHY): > 512 nM; IC50 (HSC-4): > 512 nM; IC50 (WSU-NHL): > 512 nM; IC50 (EB2): 55.8 nM; IC50 (TYK-nu): > 512 nM; IC50 (RT-112): 238 nM; IC50 (SN12C): > 512 nM; IC50 (Hs-578T): > 512 nM; IC50 (MDA-MB-175-VII): > 512 nM; IC50 (YT): 270 nM; IC50 (SW780): 423 nM; IC50 (MDA-MB-361): > 512 nM; IC50 (MFH-ino): > 512 nM; IC50 (NCI-H1993): > 512 nM; IC50 (AGS): > 512 nM; IC50 (COR-L279): > 512 nM; IC50 (CPC-N): > 512 nM; IC50 (MeWo): > 512 nM; IC50 (BT-20): > 512 nM; IC50 (UACC-62): > 512 nM; IC50 (SW1417): > 512 nM; IC50 (NCI-H1882): > 512 nM; IC50 (SW-620): > 512 nM; IC50 (CAL-72): > 512 nM; IC50 (CWR22R): > 512 nM; IC50 (SK-MM-2): > 512 nM; IC50 (DG-75): > 512 nM; IC50 (GMS-10): > 512 nM; IC50 (SNU-423): > 512 nM; IC50 (A204): 12.2 nM; IC50 (DMS-79): > 512 nM; IC50 (NCI-H2196): > 512 nM
